Usually IC50 stands for the concentration that gives 50% inhibition. Read a high IC50 as weaker potency in that assay.

Assay type in all cases: biochemical
One test addresses T1, JAK1 (Homo sapiens, UniProt P23458).
T1 construct: purchased Carna Biosciences
The test can be described thus: JAK1 microfluidic kinase assay (Caliper EZ Reader II, FAM labeled peptide substrate). Put shortly:
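Microfluidic mobility-shift assay on Caliper EZ Reader II, FAM-labelled peptide phosphorylation, in 50 mM HEPES, 0.01% Brij35, 10 mM MgCl2, 2 mM DTT, 1% DMSO; enzyme conditions set for 10% substrate conversion.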

In the next test the target is T2, JAK2 (Homo sapiens, UniProt O60674).
T2 construct: purchased Carna Biosciences
The test is described as follows: JAK2 microfluidic kinase assay (Caliper EZ Reader II, FAM labeled peptide substrate). The procedure:
(§1) Compounds were tested against JAK1, JAK2, JAK2V617F and TYK2. Assay Formats: JAK activity was determined in the reaction buffer 50 mM HEPES, 0.01% Brij35, 10 mM MgCl2, 2 mM DTT by a microfluidic assay. The phosphorylation of a FAM labeled peptide substrate was monitored in the Caliper EZ Reader II (Perkin Elmer). The assay condition for each batch of enzyme (Carna Biosciences) was optimized to obtain 10% conversion rate of peptide substrate. The test compounds were dissolved in DMSO to a stock concentration of 10 mM. 3-fold serially diluted compounds with top concentration of 5 μM were pre-incubated with JAK1, JAK2, JAK2V617F or TYK2 at indicated concentrations for 10 min at ambient temperature. The final DMSO concentration of assay mixture was 1%. […] The reaction was stopped by adding 50 mM EDTA. […] The percent inhibition was calculated by the following formula. % Inhibition=(Conversionmax−Conversionsample)/(Conversionmax−Conversionmin)*100 • Conversionmax means the conversion rate in the positive well without addition of compound • Conversionmin means the conversion rate in the well without addition of enzyme • Conversionsample means the conversion rate of test compounds The dose-response (percent inhibition) curve was plotted and IC50 values were determined by GraphPad software.

The target of another test is T3, JAK2V617F (Homo sapiens, UniProt O60674, V617F).
T3 construct: purchased Carna Biosciences
The test can be described thus: JAK2V617F microfluidic kinase assay (Caliper EZ Reader II, FAM labeled peptide substrate). The note with it: JAK2V617F 2.5 nM, 1 mM ATP. The method, then:
as §1

Setting [1] is: IC50 JAK1 (5 nM) (1 m MATP), JAK1 5 nM, 1 mM ATP.
The mark [2] stands for this setting: IC50 JAK2 ([…]) (1 mM ATP), 1 mM ATP.
[3] abbreviates: IC50 JAK2 ([…]) (Km ATP), Km ATP.

T3 sequence (O60674 whole entry V617F): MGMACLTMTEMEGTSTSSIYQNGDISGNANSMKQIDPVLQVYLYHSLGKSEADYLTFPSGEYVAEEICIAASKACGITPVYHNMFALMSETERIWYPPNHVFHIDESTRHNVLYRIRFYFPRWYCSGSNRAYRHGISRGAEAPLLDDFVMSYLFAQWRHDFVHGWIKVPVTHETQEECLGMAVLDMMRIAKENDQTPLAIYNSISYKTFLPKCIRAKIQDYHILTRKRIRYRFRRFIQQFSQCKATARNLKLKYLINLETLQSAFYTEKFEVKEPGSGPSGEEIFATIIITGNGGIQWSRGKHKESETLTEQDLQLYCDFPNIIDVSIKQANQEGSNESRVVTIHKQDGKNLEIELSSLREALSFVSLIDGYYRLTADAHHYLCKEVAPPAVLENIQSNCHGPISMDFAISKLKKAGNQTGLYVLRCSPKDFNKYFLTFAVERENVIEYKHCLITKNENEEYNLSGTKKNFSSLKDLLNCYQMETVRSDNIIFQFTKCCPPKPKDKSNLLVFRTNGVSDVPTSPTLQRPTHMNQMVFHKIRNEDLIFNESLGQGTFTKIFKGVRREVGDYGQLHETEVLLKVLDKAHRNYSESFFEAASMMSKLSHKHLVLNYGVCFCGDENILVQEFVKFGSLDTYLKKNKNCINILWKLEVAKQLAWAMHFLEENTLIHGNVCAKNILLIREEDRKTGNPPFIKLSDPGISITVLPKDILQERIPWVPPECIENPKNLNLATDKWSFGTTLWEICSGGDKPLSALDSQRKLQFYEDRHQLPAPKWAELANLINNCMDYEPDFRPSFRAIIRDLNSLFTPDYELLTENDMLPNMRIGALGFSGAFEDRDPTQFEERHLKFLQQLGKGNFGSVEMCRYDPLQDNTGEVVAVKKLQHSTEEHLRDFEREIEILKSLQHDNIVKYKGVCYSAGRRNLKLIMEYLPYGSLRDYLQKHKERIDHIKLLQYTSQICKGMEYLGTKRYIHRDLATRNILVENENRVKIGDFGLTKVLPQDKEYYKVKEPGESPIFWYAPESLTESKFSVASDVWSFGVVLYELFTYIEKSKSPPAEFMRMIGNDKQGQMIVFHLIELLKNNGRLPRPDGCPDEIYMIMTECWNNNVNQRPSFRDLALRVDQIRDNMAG
T1 sequence (P23458 whole entry): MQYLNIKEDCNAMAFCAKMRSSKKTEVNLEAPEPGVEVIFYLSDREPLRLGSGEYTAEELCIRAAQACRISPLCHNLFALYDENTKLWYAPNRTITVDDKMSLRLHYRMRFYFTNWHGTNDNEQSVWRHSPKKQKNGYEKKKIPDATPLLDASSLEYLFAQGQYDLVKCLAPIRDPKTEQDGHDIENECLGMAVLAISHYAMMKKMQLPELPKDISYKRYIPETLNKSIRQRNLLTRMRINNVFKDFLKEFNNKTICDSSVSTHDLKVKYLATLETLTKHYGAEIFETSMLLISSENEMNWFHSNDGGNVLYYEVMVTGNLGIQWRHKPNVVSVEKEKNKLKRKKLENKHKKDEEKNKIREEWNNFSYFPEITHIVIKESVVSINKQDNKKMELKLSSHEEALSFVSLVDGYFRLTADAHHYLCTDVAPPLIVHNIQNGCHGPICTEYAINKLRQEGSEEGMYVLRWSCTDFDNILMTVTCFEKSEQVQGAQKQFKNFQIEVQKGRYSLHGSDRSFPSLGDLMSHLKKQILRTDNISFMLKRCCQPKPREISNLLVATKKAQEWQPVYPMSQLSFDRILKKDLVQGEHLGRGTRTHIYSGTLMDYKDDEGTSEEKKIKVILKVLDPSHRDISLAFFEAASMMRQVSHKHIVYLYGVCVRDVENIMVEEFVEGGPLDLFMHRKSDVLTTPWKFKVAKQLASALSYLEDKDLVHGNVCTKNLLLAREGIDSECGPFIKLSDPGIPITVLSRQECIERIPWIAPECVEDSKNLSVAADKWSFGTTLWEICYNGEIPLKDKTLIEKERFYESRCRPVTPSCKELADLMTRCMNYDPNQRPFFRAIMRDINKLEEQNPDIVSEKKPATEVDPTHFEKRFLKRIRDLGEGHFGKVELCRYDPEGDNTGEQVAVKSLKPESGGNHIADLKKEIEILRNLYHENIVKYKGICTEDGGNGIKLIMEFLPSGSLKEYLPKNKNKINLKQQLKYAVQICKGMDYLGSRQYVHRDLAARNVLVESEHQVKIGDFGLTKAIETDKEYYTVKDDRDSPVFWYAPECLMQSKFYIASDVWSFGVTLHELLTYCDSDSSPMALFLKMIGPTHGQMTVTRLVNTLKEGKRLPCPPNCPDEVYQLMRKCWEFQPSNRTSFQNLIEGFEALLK
T2 sequence (O60674 whole entry): as the sequence (O60674 whole entry V617F) above, with F617V counted along it

Regarding `Cc1cnc(Nc2cnn(C3CC3)c2)nc1-c1ccc(C(=O)NCC2(C#N)CC2)cc1` [Example 93, N-((1-cyanocyclopropyl)methyl)-4-(2-((1-cyclopropyl-1H-pyrazol-4-yl)amino)-5-methylpyrimidin-4-yl)benzamide], the concentration for half-maximal inhibition (IC50) at JAK1 (setting [1]) worked out at 20.1 nM; against JAK2 (setting [2]), 44.3 nM; at JAK2 (setting [3]), 1.39 nM; at JAK2V617F it was 102 nM.

For the molecule `Cn1cc(Nc2ncc(Cl)c(-c3ccc(C(=O)NCC(C)(C)C#N)cc3)n2)cn1` [Example 122, 4-(5-Chloro-2-((1-methyl-1H-pyrazol-4-yl)amino)pyrimidin-4-yl)-N-(2-cyano-2-methylpropyl)benzamide], the figures for the IC50 against JAK1 (setting [1]), at JAK2 (setting [3]) and against JAK2V617F were 19.3 nM, 1.1 nM and 73.9 nM, respectively.

For the molecule `Cc1cnc(Nc2cnn([C@H]3CC[C@H](C#N)CC3)c2)nc1-c1ccc(C(=O)NCC(F)(F)F)cc1` [Example 87, 4-(2-((1-(Trans-4-cyanocyclohexyl)-1H-pyrazol-4-yl)amino)-5-methylpyrimidin4-yl)-N-(2,2,2-trifluoroethyl)benzamide], the values for the IC50 against JAK1 (setting [1]), at JAK2 (setting [2]) and against JAK2V617F were 9 nM, less than 0.25 nM and 0.65 nM, respectively.

As to `Cc1cnc(Nc2cnn(C3CCN(C(=O)C4CC4(F)F)CC3)c2)nc1-c1ccc(C(=O)NCC#N)cc1` (stereo not shown) [Example 145, N-(cyanomethyl)-4-(2-((1-(1-(2,2-difluorocyclopropanecarbonyl)piperidin-4-yl)-1H-pyrazol-4-yl)amino)-5-methylpyrimidin-4-yl)benzamide], the figures for the IC50 on JAK1 (setting [1]), on JAK2 (setting [2]) and against JAK2V617F were 15.1 nM, 0.47 nM and 6.97 nM, respectively.

For the molecule `CC(C)n1cc(Nc2ncc(Cl)c(-c3ccc(C(=O)N[C@@H](C)C#N)cc3)n2)cn1` [Example 228, (S)-4-(5-Chloro-2-((1-isopropyl-1H-pyrazol-4-yl)amino)pyrimidin-4-yl)-N-(1-cyanoethyl)benzamide], the IC50 on JAK1 (setting [1]) worked out at 5.89 nM; against JAK2 (setting [2]) it was 0.39 nM; against JAK2V617F, 22 nM.

On to `CO[C@H]1CC[C@@H](n2cc(Nc3ncc(C)c(-c4ccc(C(=O)N[C@@H](C)C#N)cc4)n3)cn2)CC1` [Example 90, N—((S)-1-cyanoethyl)-4-(2-((1-(cis-4-methoxycyclohexyl)-1H-pyrazol-4-yl)amino)-5-methylpyrimidin-4-yl)benzamide], for which the IC50 came out at 13.1 nM against JAK1 (setting [1]), 0.47 nM against JAK2 (setting [2]) and 34.3 nM against JAK2V617F.

With `Cc1cnc(Nc2cnn(C3CCN(C(=O)NC(C)(C)C)CC3)c2)nc1-c1ccc(C(=O)NCC#N)cc1` [Example 3, N-(tert-Butyl)-4-(4-((4-(4-((cyanomethyl)carbamoyl)phenyl)-5-methylpyrimidin-2-yl)amino)-1H-pyrazol-1-yl)piperidine-1-carboxamide], the IC50 is 17.1 nM against JAK1 (setting [1]), less than 0.25 nM against JAK2 (setting [2]), less than 0.25 nM against JAK2 (setting [3]) and 5.26 nM at JAK2V617F.

As for `Cc1cnc(Nc2cnn(C3CCN(CC(F)(F)F)CC3)c2)nc1-c1ccc(C(=O)NCC#N)cc1` [Example 22, N-(Cyanomethyl)-4-(5-methyl-2-((1-(1-(2,2,2-trifluoroethyl)piperidin-4-yl)-1H-pyrazol-4-yl)amino)pyrimidin-4-yl)benzamide], the IC50 is 2.37 nM on JAK1 (IC50 JAK1 (10 nM) (Km ATP), JAK1 10 nM, Km ATP); 1.59 nM against JAK2 (setting [2]); 0.43 nM on JAK2 (setting [3]); 46.1 nM at JAK2V617F.

Consider `Cc1cnc(Nc2cnn([C@H]3CC[C@@H](C#N)CC3)c2)nc1-c1ccc(C(=O)NCC(F)(F)F)cc1` [Example 86, 4-(2-((1-(Cis-4-cyanocyclohexyl)-1H-pyrazol-4-yl)amino)-5-methylpyrimidin-4-yl)-N-(2,2,2-trifluoroethyl)benzamide], for which the IC50 at JAK1 (setting [1]) came out at 14.3 nM; on JAK2 (setting [2]), 1.21 nM; against JAK2V617F it was 4.91 nM.

On to `CCCn1cc(Nc2ncc(Cl)c(-c3ccc(C(=O)N[C@@H](C)C#N)cc3)n2)cn1` [Example 227, (S)-4-(5-Chloro-2-((1-propyl-1H-pyrazol-4-yl)amino)pyrimidin-4-yl)-N-(1-cyanoethyl)benzamide], for which the IC50 is 4.08 nM on JAK1 (setting [1]), 3.14 nM on JAK2 (setting [2]) and 17.6 nM against JAK2V617F.

Turning to `C[C@H](C#N)NC(=O)c1ccc(-c2nc(Nc3cnn(C4CC4)c3)ncc2Cl)cc1` [Example 196, (R)-4-(5-chloro-2-((1-cyclopropyl-1H-pyrazol-4-yl)amino)pyrimidin-4-yl)-N-(1-cyanoethyl)benzamide], the IC50 came out at 34.8 nM at JAK1 (setting [1]), 41.3 nM on JAK2 (setting [2]) and 71.6 nM against JAK2V617F.

In the case of `Cc1cnc(Nc2cnn(C3CC3)c2)nc1-c1ccc(C(=O)N[C@@H](C)C#N)c(F)c1` [Example 129, (S)—N-(1-Cyanoethyl)-4-(2-((1-cyclopropyl-1H-pyrazol-4-yl)amino)-5-methylpyrimidin-4-yl)-2-fluorobenzamide], the half-inhibitory concentration (IC50) turned out to be 39.9 nM against JAK1 (setting [1]), 49 nM at JAK2 (setting [2]), 1.6 nM at JAK2 (setting [3]) and 118 nM against JAK2V617F.

For `Cc1cnc(Nc2cnn(C)c2)nc1-c1ccc(C(=O)N[C@H]2C[C@@H](C#N)C2)cc1` [Example 16, N-((cis)-3-Cyanocyclobutyl)-4-(5-methyl-2-((1-methyl-1H-pyrazol-4-yl)amino)pyrimidin-4-yl)benzamide], the IC50 on JAK1 (setting [1]) came out at 124 nM; at JAK2 (setting [3]) it was 13.6 nM; against JAK2V617F, 796 nM.

`Cc1cnc(Nc2cnn(C3CCN(C(=O)C4(C(F)(F)F)CC4)CC3)c2)nc1-c1ccc(C(=O)NCC#N)cc1` [Example 115, N-(Cyanomethyl)-4-(5-methyl-2-((1-(1-(1-(trifluoromethyl)cyclopropanecarbonyl)piperidin-4-yl)-1H-pyrazol-4-yl)amino)pyrimidin-4-yl)benzamide]: the IC50 was 20.8 nM against JAK1 (setting [1]), less than 0.25 nM on JAK2 (setting [2]), less than 0.25 nM on JAK2 (setting [3]) and 2.06 nM at JAK2V617F.

As for `Cc1cnc(Nc2cnn(C3CCCCC3)c2)nc1-c1ccc(C(=O)N[C@@H](C)C#N)cc1` [Example 89, (S)—N-(1-cyanoethyl)-4-(2-((1-cyclohexyl-1H-pyrazol-4-yl)amino)-5-methylpyrimidin-4-yl)benzamide], the IC50 against JAK1 (setting [1]) is 4.78 nM; against JAK2 (setting [2]), less than 0.25 nM; against JAK2V617F it was 10.1 nM.

As for `Cc1cnc(Nc2cnn(C3CCN(S(C)(=O)=O)CC3)c2)nc1-c1ccc(C(=O)NCC2(C#N)CC2)cc1` [Example 159, N-((1-cyanocyclopropyl)methyl)-4-(5-methyl-2-((1-(1-(methylsulfonyl)piperidin-4-yl)-1H-pyrazol-4-yl)amino)pyrimidin-4-yl)benzamide], the IC50 came to 24.1 nM against JAK1 (setting [1]), 4.82 nM at JAK2 (setting [2]) and 36.7 nM against JAK2V617F.

For the molecule `Cc1cnc(Nc2cnn(C3CC3)c2)nc1-c1ccc(C(=O)N[C@@H](C)C#N)nc1` [Example 164, (S)—N-(1-cyanoethyl)-5-(2-((1-cyclopropyl-1H-pyrazol-4-yl)amino)-5-methylpyrimidin-4-yl)picolinamide], the IC50 amounted to 36.6 nM at JAK1 (setting [1]), 89.3 nM against JAK2 (setting [2]) and 142 nM against JAK2V617F.

As for `CCn1cc(Nc2ncc(Cl)c(-c3ccc(C(=O)N[C@@H](C)C#N)cc3)n2)cn1` [Example 229, (S)-4-(5-Chloro-2-((1-ethyl-1H-pyrazol-4-yl)amino)pyrimidin-4-yl)-N-(1-cyanoethyl)benzamide], the figures for the IC50 against JAK1 (setting [1]), at JAK2 (setting [2]) and at JAK2V617F were 3.68 nM, 1.68 nM and 14.1 nM, respectively.

As for `C[C@@H](C#N)NC(=O)c1ccc(-c2nc(Nc3cnn(C4CC4)c3)ncc2Cl)cc1F` [Example 137, (S)-4-(5-Chloro-2-((1-cyclopropyl-1H-pyrazol-4-yl)amino)pyrimidin-4-yl)-N-(1-cyanoethyl)-2-fluorobenzamide], the IC50 on JAK1 (setting [1]) is 37 nM; against JAK2 (setting [2]), 46.4 nM; at JAK2 (setting [3]) it was 2.1 nM; on JAK2V617F, 92.3 nM.

For `Cc1cnc(Nc2cnn(CC#N)c2)nc1-c1ccc(C(=O)N[C@@H](C)C#N)cc1` [Example 40, (S)—N-(1-cyanoethyl)-4-(2-((1-(cyanomethyl)-1H-pyrazol-4-yl)amino)-5-methylpyrimidin-4-yl)benzamide], the 50% inhibitory concentration (IC50) against JAK1 (setting [1]) worked out at 19.1 nM; against JAK2 (setting [2]), 15 nM; at JAK2V617F, 92.3 nM.

With `Cc1cnc(Nc2cnn(C3CCOCC3)c2)nc1-c1ccc(C(=O)N2CC(C#N)C2)cc1` [Example 31, 1-(4-(5-Methyl-2-((1-(tetrahydro-2H-pyran-4-yl)-1H-pyrazol-4-yl)amino)pyrimidin-4-yl)benzoyl)azetidine-3-carbonitrile], the IC50 on JAK1 (setting [1]) was determined as 235 nM; on JAK2 (setting [2]) it was 71.7 nM; against JAK2 (setting [3]) it was 2.07 nM; at JAK2V617F it was 131 nM.

The record behind these values is patent US12595253B2, “Benzamides of pyrazolylamino-pyrimidinyl derivatives, and compositions and methods thereof” (LYNK PHARMACEUTICALS CO. LTD., priority 2019, dated 2026).
